{
  "source": "paper PMC7396987",
  "about": "“Biological Activity of Pseudovitamin B12 on Cobalamin-Dependent Methylmalonyl-CoA Mutase and Methionine Synthase in Mammalian Cultured COS-7 Cells” (Molecules, 2020)",
  "target": "T1, human MS (hMS; recombinant FLAG-tagged methionine synthase) (Homo sapiens, UniProt Q99707)",
  "T1 construct": "gene MTR; full-length ORF from human brain cerebral cortex cDNA in p3xFLAG-Myc-CMV (p3xFLAG-hMS), N-terminal 3xFLAG tag kept; expressed in COS-7 cells, apoenzyme in cell homogenate (low endogenous monkey MS background)",
  "T1 sequence (Q99707 2-1265 limits assumed)": "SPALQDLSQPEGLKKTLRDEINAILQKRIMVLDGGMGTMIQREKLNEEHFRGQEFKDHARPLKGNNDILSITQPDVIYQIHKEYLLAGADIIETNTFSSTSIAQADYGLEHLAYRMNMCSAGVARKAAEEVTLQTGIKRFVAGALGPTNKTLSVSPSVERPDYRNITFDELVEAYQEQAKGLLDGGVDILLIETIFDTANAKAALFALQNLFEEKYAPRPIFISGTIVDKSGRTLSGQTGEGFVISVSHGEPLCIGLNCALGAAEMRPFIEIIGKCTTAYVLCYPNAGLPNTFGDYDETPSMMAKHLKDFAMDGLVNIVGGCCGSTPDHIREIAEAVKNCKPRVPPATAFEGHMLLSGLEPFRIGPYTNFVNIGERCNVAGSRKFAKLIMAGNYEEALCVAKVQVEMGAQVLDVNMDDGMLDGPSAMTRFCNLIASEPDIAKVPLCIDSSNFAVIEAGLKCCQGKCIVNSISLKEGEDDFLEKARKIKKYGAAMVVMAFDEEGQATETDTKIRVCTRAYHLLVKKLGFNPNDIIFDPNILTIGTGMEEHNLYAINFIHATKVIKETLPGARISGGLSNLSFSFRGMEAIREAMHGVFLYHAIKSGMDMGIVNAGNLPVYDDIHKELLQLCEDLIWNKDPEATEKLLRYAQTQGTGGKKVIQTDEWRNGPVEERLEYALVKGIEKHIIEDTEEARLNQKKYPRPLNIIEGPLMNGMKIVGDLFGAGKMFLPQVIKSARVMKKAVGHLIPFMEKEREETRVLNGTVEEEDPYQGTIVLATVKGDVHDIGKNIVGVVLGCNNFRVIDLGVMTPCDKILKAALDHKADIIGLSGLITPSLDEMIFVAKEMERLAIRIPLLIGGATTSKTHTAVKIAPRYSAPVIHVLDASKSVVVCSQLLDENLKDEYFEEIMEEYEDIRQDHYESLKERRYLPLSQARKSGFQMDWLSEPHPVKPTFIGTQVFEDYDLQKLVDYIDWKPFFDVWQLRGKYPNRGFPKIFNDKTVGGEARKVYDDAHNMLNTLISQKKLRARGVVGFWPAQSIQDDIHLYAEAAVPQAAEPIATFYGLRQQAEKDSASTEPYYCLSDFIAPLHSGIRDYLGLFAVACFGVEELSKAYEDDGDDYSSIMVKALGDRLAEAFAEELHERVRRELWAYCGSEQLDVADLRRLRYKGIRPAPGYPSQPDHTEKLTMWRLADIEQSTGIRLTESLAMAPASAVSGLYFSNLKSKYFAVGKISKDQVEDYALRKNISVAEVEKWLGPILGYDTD",
  "assay": "activation of apo-MS in cell homogenate, HPLC activity assay, saturation fit",
  "type": "biochemical",
  "settings": "cobalamin reduced by titanium citrate; substrate 5-methyltetrahydrofolate; homogenate of MS cDNA-transfected COS-7 cells grown without OH-Cbl; read-out: apparent Kd",
  "data": [
    {"substance": "(Ade)OH-Cba [compound 6]", "values": [
      {"measurement": "Kd", "result": "~26.3", "unit": "µM"}
    ]}
  ]
}
